Source: PubChem BioAssay (NCI)
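In this assay, cells in 96-well plates receive the compound at five concentrations for 48 hours. Endpoints are linearly interpolated between the surrounding concentrations. Definition used: TGI = concentration required for complete inhibition of growth.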

These compounds were tested on COLO 205 colon (assay: NCI-60 cell line screen, 48 h).

**Q.** `CC(=O)NC(Cc1ccc(O)cc1)C(=O)O` (configuration not stated) was tested. Which TGI did it give?
**A.** The TGI was over 100 µM.

**Q.** For `COCO[C@@H]1C[C@H]2C(=O)Nc3ccccc3C(=O)N2C1`, which TGI is on record?
**A.** The TGI was over 100 µM.

**Q.** With `CN1C(=O)C2CCC(=O)N2c2cccnc21` (configuration not stated) as the compound, how does the TGI read?
**A.** The TGI was over 100 µM.

**Q.** For `Nc1c2c(nc3ccccc13)-c1ccccc1CC2`, which TGI is on record?
**A.** Its TGI is 15.8 µM.

**Q.** For `CC(=O)O[C@@H]1[C@H](C(C)C)[C@@H](OC(C)=O)C/C(C)=C/CC[C@]2(C)O[C@@H]12`, which TGI is on record?
**A.** Its TGI is over 100 µM.

**Q.** Which TGI does the source give for `CCOC(=O)CSc1c(C(=O)OCC)c(=O)n(-c2ccccc2)c(=S)n1-c1ccccc1` here?
**A.** The TGI was over 100 µM.

These compounds were tested on LOX IMVI melanoma (assay: NCI-60 cell line screen, 48 h).

**Q.** For `CN(C)C(=O)O/N=C1/C(c2c(O)[nH]c3ccccc23)=Nc2ccccc21`, which TGI is on record?
**A.** The TGI was over 100 µM.

**Q.** Which TGI does the source give for `O=[N+]([O-])c1cccc(-c2csc(NNC3=NC/C(=C/c4ccc5c(c4)OCO5)S3)n2)c1` here?
**A.** The TGI was over 100 µM.

**Q.** For `CC(=O)NC(Cc1ccc(O)cc1)C(=O)O` (configuration not stated), which TGI is on record?
**A.** The TGI was over 100 µM.

**Q.** For `COCO[C@@H]1C[C@H]2C(=O)Nc3ccccc3C(=O)N2C1`, which TGI is on record?
**A.** Its TGI is over 100 µM.

**Q.** How did the TGI turn out when `CN1C(=O)C2CCC(=O)N2c2cccnc21` (configuration not stated) was run?
**A.** Its TGI is over 100 µM.

**Q.** Which TGI does the source give for `Nc1c2c(nc3ccccc13)-c1ccccc1CC2` here?
**A.** Its TGI is 15.5 µM.

**Q.** How did the TGI turn out when `CC(=O)O[C@@H]1[C@H](C(C)C)[C@@H](OC(C)=O)C/C(C)=C/CC[C@]2(C)O[C@@H]12` was run?
**A.** Its TGI is over 100 µM.

**Q.** With `CCOC(=O)CSc1c(C(=O)OCC)c(=O)n(-c2ccccc2)c(=S)n1-c1ccccc1` as the compound, how does the TGI read?
**A.** The TGI was over 100 µM.

These compounds were tested on ACHN renal (assay: NCI-60 cell line screen, 48 h).

**Q.** Which TGI does the source give for `CN(C)C(=O)O/N=C1/C(c2c(O)[nH]c3ccccc23)=Nc2ccccc21` here?
**A.** Its TGI is over 100 µM.

**Q.** With `O=[N+]([O-])c1cccc(-c2csc(NNC3=NC/C(=C/c4ccc5c(c4)OCO5)S3)n2)c1` as the compound, how does the TGI read?
**A.** The TGI was over 100 µM.

**Q.** `CC(=O)NC(Cc1ccc(O)cc1)C(=O)O` (configuration not stated) was tested. Which TGI did it give?
**A.** Its TGI is over 100 µM.

**Q.** With `COCO[C@@H]1C[C@H]2C(=O)Nc3ccccc3C(=O)N2C1` as the compound, how does the TGI read?
**A.** Its TGI is over 100 µM.

**Q.** `CN1C(=O)C2CCC(=O)N2c2cccnc21` (configuration not stated) was tested. Which TGI did it give?
**A.** Its TGI is over 100 µM.

**Q.** How did the TGI turn out when `Nc1c2c(nc3ccccc13)-c1ccccc1CC2` was run?
**A.** The TGI was 14.1 µM.

**Q.** `CC(=O)O[C@@H]1[C@H](C(C)C)[C@@H](OC(C)=O)C/C(C)=C/CC[C@]2(C)O[C@@H]12` was tested. Which TGI did it give?
**A.** Its TGI is over 100 µM.

**Q.** Which TGI does the source give for `CCOC(=O)CSc1c(C(=O)OCC)c(=O)n(-c2ccccc2)c(=S)n1-c1ccccc1` here?
**A.** Its TGI is over 100 µM.

Each compound was assayed on NCI-H23 lung (assay: NCI-60 cell line screen, 48 h).

**Q.** Which TGI does the source give for `CN(C)C(=O)O/N=C1/C(c2c(O)[nH]c3ccccc23)=Nc2ccccc21` here?
**A.** Its TGI is over 100 µM.

**Q.** Which TGI does the source give for `O=[N+]([O-])c1cccc(-c2csc(NNC3=NC/C(=C/c4ccc5c(c4)OCO5)S3)n2)c1` here?
**A.** Its TGI is 48.9 µM.

**Q.** Which TGI does the source give for `CC(=O)NC(Cc1ccc(O)cc1)C(=O)O` (configuration not stated) here?
**A.** The TGI was over 100 µM.

**Q.** How did the TGI turn out when `COCO[C@@H]1C[C@H]2C(=O)Nc3ccccc3C(=O)N2C1` was run?
**A.** Its TGI is over 100 µM.

**Q.** With `CN1C(=O)C2CCC(=O)N2c2cccnc21` (configuration not stated) as the compound, how does the TGI read?
**A.** The TGI was over 100 µM.

**Q.** How did the TGI turn out when `Nc1c2c(nc3ccccc13)-c1ccccc1CC2` was run?
**A.** Its TGI is 27.2 µM.

**Q.** How did the TGI turn out when `CC(=O)O[C@@H]1[C@H](C(C)C)[C@@H](OC(C)=O)C/C(C)=C/CC[C@]2(C)O[C@@H]12` was run?
**A.** The TGI was over 100 µM.

**Q.** For `CCOC(=O)CSc1c(C(=O)OCC)c(=O)n(-c2ccccc2)c(=S)n1-c1ccccc1`, which TGI is on record?
**A.** The TGI was over 100 µM.

Each compound was assayed on TK-10 renal (assay: NCI-60 cell line screen, 48 h).

**Q.** With `CN(C)C(=O)O/N=C1/C(c2c(O)[nH]c3ccccc23)=Nc2ccccc21` as the compound, how does the TGI read?
**A.** Its TGI is 57.1 µM.

**Q.** For `O=[N+]([O-])c1cccc(-c2csc(NNC3=NC/C(=C/c4ccc5c(c4)OCO5)S3)n2)c1`, which TGI is on record?
**A.** The TGI was 81.6 µM.

**Q.** Which TGI does the source give for `CC(=O)NC(Cc1ccc(O)cc1)C(=O)O` (configuration not stated) here?
**A.** Its TGI is over 100 µM.

**Q.** How did the TGI turn out when `COCO[C@@H]1C[C@H]2C(=O)Nc3ccccc3C(=O)N2C1` was run?
**A.** Its TGI is over 100 µM.

**Q.** Which TGI does the source give for `CN1C(=O)C2CCC(=O)N2c2cccnc21` (configuration not stated) here?
**A.** Its TGI is over 100 µM.

**Q.** With `Nc1c2c(nc3ccccc13)-c1ccccc1CC2` as the compound, how does the TGI read?
**A.** Its TGI is 14.7 µM.

**Q.** With `CC(=O)O[C@@H]1[C@H](C(C)C)[C@@H](OC(C)=O)C/C(C)=C/CC[C@]2(C)O[C@@H]12` as the compound, how does the TGI read?
**A.** Its TGI is over 100 µM.

**Q.** With `CCOC(=O)CSc1c(C(=O)OCC)c(=O)n(-c2ccccc2)c(=S)n1-c1ccccc1` as the compound, how does the TGI read?
**A.** Its TGI is over 100 µM.

What follows are compounds tested on CCRF-CEM leukemia (assay: NCI-60 cell line screen, 48 h).

**Q.** How did the TGI turn out when `CN(C)C(=O)O/N=C1/C(c2c(O)[nH]c3ccccc23)=Nc2ccccc21` was run?
**A.** Its TGI is over 100 µM.

**Q.** Which TGI does the source give for `O=[N+]([O-])c1cccc(-c2csc(NNC3=NC/C(=C/c4ccc5c(c4)OCO5)S3)n2)c1` here?
**A.** Its TGI is over 100 µM.

**Q.** How did the TGI turn out when `CN1C(=O)C2CCC(=O)N2c2cccnc21` (configuration not stated) was run?
**A.** The TGI was over 100 µM.

**Q.** Which TGI does the source give for `Nc1c2c(nc3ccccc13)-c1ccccc1CC2` here?
**A.** The TGI was 18.9 µM.

**Q.** For `CCOC(=O)CSc1c(C(=O)OCC)c(=O)n(-c2ccccc2)c(=S)n1-c1ccccc1`, which TGI is on record?
**A.** The TGI was over 100 µM.

What follows are compounds tested on UO-31 renal (assay: NCI-60 cell line screen, 48 h).

**Q.** How did the TGI turn out when `CN(C)C(=O)O/N=C1/C(c2c(O)[nH]c3ccccc23)=Nc2ccccc21` was run?
**A.** The TGI was over 100 µM.

**Q.** How did the TGI turn out when `O=[N+]([O-])c1cccc(-c2csc(NNC3=NC/C(=C/c4ccc5c(c4)OCO5)S3)n2)c1` was run?
**A.** The TGI was 85.6 µM.

**Q.** With `CC(=O)NC(Cc1ccc(O)cc1)C(=O)O` (configuration not stated) as the compound, how does the TGI read?
**A.** The TGI was over 100 µM.

**Q.** How did the TGI turn out when `COCO[C@@H]1C[C@H]2C(=O)Nc3ccccc3C(=O)N2C1` was run?
**A.** The TGI was 74.5 µM.

**Q.** `CN1C(=O)C2CCC(=O)N2c2cccnc21` (configuration not stated) was tested. Which TGI did it give?
**A.** Its TGI is over 100 µM.

**Q.** With `CC(=O)O[C@@H]1[C@H](C(C)C)[C@@H](OC(C)=O)C/C(C)=C/CC[C@]2(C)O[C@@H]12` as the compound, how does the TGI read?
**A.** The TGI was over 100 µM.

**Q.** Which TGI does the source give for `CCOC(=O)CSc1c(C(=O)OCC)c(=O)n(-c2ccccc2)c(=S)n1-c1ccccc1` here?
**A.** The TGI was over 100 µM.

The compounds below were run on MALME-3M melanoma (assay: NCI-60 cell line screen, 48 h).

**Q.** With `CN(C)C(=O)O/N=C1/C(c2c(O)[nH]c3ccccc23)=Nc2ccccc21` as the compound, how does the TGI read?
**A.** The TGI was 30 µM.

**Q.** Which TGI does the source give for `CC(=O)NC(Cc1ccc(O)cc1)C(=O)O` (configuration not stated) here?
**A.** The TGI was over 100 µM.
